Legend:
Format in all cases: functional
LOX IMVI [1] = assay: Growth inhibition of human LOXIMVI cells assessed as cell growth at 10^-6 M by sulforhodamine B assay; conditions: read-out: Activity
NCI-H322M = assay: Growth inhibition of human NCI-H322M cells assessed as cell growth at 10^-6 M by sulforhodamine B assay; conditions: read-out: Activity
SF-295 = assay: Growth inhibition of human SF295 cells assessed as cell growth at 10^-6 M by sulforhodamine B assay; conditions: read-out: Activity
RXF 393 [2] = assay: Growth inhibition of human RXF393 cells assessed as cell growth at 10^-4 M by sulforhodamine B assay; conditions: read-out: Activity
SK-MEL-28 [3] = assay: Growth inhibition of human SK-MEL-28 cells assessed as cell growth at 10^-4 M by sulforhodamine B assay; conditions: read-out: Activity
RXF 393 [4] = assay: Growth inhibition of human RXF393 cells by sulforhodamine B assay
786-0 [5] = assay: Growth inhibition of human 786-0 cells by sulforhodamine B assay
NCI-H522 = assay: Growth inhibition of human NCI-H522 cells assessed as cell growth at 10^-8 M by sulforhodamine B assay; conditions: read-out: Activity
HOP-92 = assay: Growth inhibition of human HOP92 cells assessed as cell growth at 10^-6 M by sulforhodamine B assay; conditions: read-out: Activity
UACC-62 = assay: Growth inhibition of human UACC62 cells assessed as cell growth at 10^-8 M by sulforhodamine B assay; conditions: read-out: Activity
NCI-H226 = assay: Growth inhibition of human NCI-H226 cells assessed as cell growth at 10^-7 M by sulforhodamine B assay; conditions: read-out: Activity
OVCAR-5 = assay: Growth inhibition of human OVCAR5 cells assessed as cell growth at 10^-8 M by sulforhodamine B assay; conditions: read-out: Activity
M14 = assay: Growth inhibition of human M14 cells assessed as cell growth at 10^-6 M by sulforhodamine B assay; conditions: read-out: Activity
SK-MEL-28 [6] = assay: Growth inhibition of human SK-MEL-28 cells assessed as cell growth at 10^-7 M by sulforhodamine B assay; conditions: read-out: Activity
[7] = Growth inhibition of human NCI-ADR-RES cells assessed as cell growth at 10^-4 M by sulforhodamine B assay; conditions: read-out: Activity
OVCAR-3 [8] = assay: Growth inhibition of human OVCAR3 cells assessed as cell growth at 10^-7 M by sulforhodamine B assay; conditions: read-out: Activity
A498 = assay: Growth inhibition of human A498 cells assessed as cell growth at 10^-8 M by sulforhodamine B assay; conditions: read-out: Activity
MDA-MB-468 = assay: Growth inhibition of human MDA-MB-468 cells assessed as cell growth at 10^-4 M by sulforhodamine B assay; conditions: read-out: Activity
CCRF-CEM = assay: Growth inhibition of human CCRF-CEM cells assessed as cell growth at 10^-4 M by sulforhodamine B assay; conditions: read-out: Activity
NCI-H23 = assay: Growth inhibition of human NCI-H23 cells assessed as cell growth at 10^-4 M by sulforhodamine B assay; conditions: read-out: Activity
HL-60(TB) = assay: Growth inhibition of human HL-60(TB) cells assessed as cell growth at 10^-6 M by sulforhodamine B assay; conditions: read-out: Activity
SR = assay: Growth inhibition of human SR cells assessed as cell growth at 10^-7 M by sulforhodamine B assay; conditions: read-out: Activity
K562 = assay: Growth inhibition of human K562 cells assessed as cell growth at 10^-7 M by sulforhodamine B assay; conditions: read-out: Activity
RPMI-8226 = assay: Growth inhibition of human RPMI8226 cells assessed as cell growth at 10^-6 M by sulforhodamine B assay; conditions: read-out: Activity
RXF 393 [9] = assay: Growth inhibition of human RXF393 cells assessed as cell growth at 10^-8 M by sulforhodamine B assay; conditions: read-out: Activity
ACHN [10] = assay: Growth inhibition of human ACHN cells by sulforhodamine B assay
BT-549 = assay: Growth inhibition of human BT549 cells assessed as cell growth at 10^-4 M by sulforhodamine B assay; conditions: read-out: Activity
OVCAR-3 [11] = assay: Growth inhibition of human OVCAR3 cells assessed as cell growth at 10^-8 M by sulforhodamine B assay; conditions: read-out: Activity
LOX IMVI [12] = assay: Growth inhibition of human LOXIMVI cells assessed as cell growth at 10^-4 M by sulforhodamine B assay; conditions: read-out: Activity
SK-OV-3 = assay: Growth inhibition of human SKOV3 cells assessed as cell growth at 10^-8 M by sulforhodamine B assay; conditions: read-out: Activity
ACHN [13] = assay: Growth inhibition of human ACHN cells assessed as cell growth at 10^-6 M by sulforhodamine B assay; conditions: read-out: Activity
IGROV-1 = assay: Growth inhibition of human IGROV1 cells assessed as cell growth at 10^-7 M by sulforhodamine B assay; conditions: read-out: Activity
786-0 [14] = assay: Growth inhibition of human 786-0 cells assessed as cell growth at 10^-7 M by sulforhodamine B assay; conditions: read-out: Activity
[15] = Growth inhibition of human NCI-ADR-RES cells assessed as cell growth at 10^-6 M by sulforhodamine B assay; conditions: read-out: Activity
UACC-257 = assay: Growth inhibition of human UACC257 cells assessed as cell growth at 10^-7 M by sulforhodamine B assay; conditions: read-out: Activity
[16] = read-out: LC50 (the source's name)
[17] = read-out: pLC50 (the source's name) (converted)

CC1(C)C[C@@H](O)[C@]2(C(=O)O)CC[C@]3(C)C(=CC[C@@H]4[C@@]5(C)C/C(=C\C=C\c6ccccc6)C(=O)C(C)(C)[C@@H]5CC[C@]43C)[C@@H]2C1
growth at 1 µM (LOX IMVI [1]): 101% | growth at 1 µM (NCI-H322M): 94% | growth at 1 µM (SF-295): 88% | growth at 100 µM (RXF 393 [2]): -92% | growth at 100 µM (SK-MEL-28 [3]): -80% | GI50 (RXF 393 [4]; read-out: GI50): 2.65 µM | CC50 (RXF 393 [4]; [16]): 29.7 µM | TGI (RXF 393 [4]; read-out: TGI): 7.65 µM | GI50 (RXF 393 [4]; read-out: pGI50 (converted)): 2.63 µM | CC50 (RXF 393 [4]; [17]): 29.5 µM | TGI (RXF 393 [4]; read-out: pTGI (converted)): 7.59 µM | GI50 (786-0 [5]; read-out: GI50): 3.44 µM | CC50 (786-0 [5]; [16]): 43.1 µM | TGI (786-0 [5]; read-out: TGI): 12.8 µM | GI50 (786-0 [5]; read-out: pGI50 (converted)): 3.47 µM | CC50 (786-0 [5]; [17]): 42.7 µM | TGI (786-0 [5]; read-out: pTGI (converted)): 12.9 µM | growth at 0.01 µM (NCI-H522): 89% | growth at 1 µM (HOP-92): 76% | growth at 0.01 µM (UACC-62): 96% | growth at 0.1 µM (NCI-H226): 92% | growth at 0.01 µM (OVCAR-5): 103% | growth at 1 µM (M14): 91% | growth at 0.1 µM (SK-MEL-28 [6]): 102% | growth at 100 µM [7]: -87% | growth at 0.1 µM (OVCAR-3 [8]): 104% | growth at 0.01 µM (A498): 82% | growth at 100 µM (MDA-MB-468): -95% | growth at 100 µM (CCRF-CEM): -19% | growth at 100 µM (NCI-H23): -83% | growth at 1 µM (HL-60(TB)): 112% | growth at 0.1 µM (SR): 100% | growth at 0.1 µM (K562): 102% | growth at 1 µM (RPMI-8226): 92% | growth at 0.01 µM (RXF 393 [9]): 94% | GI50 (ACHN [10]; read-out: GI50): 3.65 µM | CC50 (ACHN [10]; [16]): 39.2 µM | TGI (ACHN [10]; read-out: TGI): 13.3 µM | GI50 (ACHN [10]; read-out: pGI50 (converted)): 3.63 µM | CC50 (ACHN [10]; [17]): 38.9 µM | TGI (ACHN [10]; read-out: pTGI (converted)): 13.2 µM | growth at 100 µM (BT-549): -72% | growth at 0.01 µM (OVCAR-3 [11]): 102% | growth at 100 µM (LOX IMVI [12]): -90% | growth at 0.01 µM (SK-OV-3): 96% | growth at 1 µM (ACHN [13]): 97% | growth at 0.1 µM (IGROV-1): 112% | growth at 0.1 µM (786-0 [14]): 100% | growth at 1 µM [15]: 87% | growth at 0.1 µM (UACC-257): 92%

From ChEMBL document CHEMBL2413072, “Synthesis and in vitro anticancer studies of novel C-2 arylidene congeners of lantadenes” (2013)
